Experimental data taken from ChEMBL document CHEMBL5576135, “Discovery of Indolo[3,2-c]isoquinoline Derivatives as Novel Top1/2 Dual Inhibitors with Orally Efficacious Antitumor Activity and Low Toxicity” (J Med Chem, 2024).
Calls of active or inactive are those of the source. The calls are words filed in the database; no cut-off is given here.

Key:
MCF7 = experiment: Antiproliferative activity against human MCF7 cells assessed as inhibition of cell growth incubated for 96 hrs by MTT based ELISA; type: functional; conditions: MCF7, 96 h
MDA-MB-231 = experiment: Antiproliferative activity against human MDA-MB-231 cells assessed as inhibition of cell growth incubated for 96 hrs by MTT based ELISA; type: functional; conditions: MDA-MB-231, 96 h
PC-3 = experiment: Antiproliferative activity against human PC-3 cells assessed as inhibition of cell growth incubated for 96 hrs by MTT based ELISA; type: functional; conditions: PC-3, 96 h
HCT-116 = experiment: Antiproliferative activity against human HCT-116 cells assessed as inhibition of cell growth incubated for 96 hrs by MTT based ELISA; type: functional; conditions: HCT-116, 96 h
NCI-H2228 = experiment: Antiproliferative activity against human NCI-H2228 cells assessed as inhibition of cell growth incubated for 96 hrs by MTT based ELISA; type: functional; conditions: NCI-H2228, 96 h
Huh-7 = experiment: Antiproliferative activity against human Huh-7 cells assessed as inhibition of cell growth incubated for 96 hrs by MTT based ELISA; type: functional; conditions: Huh-7, 96 h
[1] = biological target: T1, DNA topoisomerase 1 (Homo sapiens) (UniProt P11387); experiment: Inhibition of Topoisomerase I (unknown origin) using pBR322 DNA as substrate at 200 uM incubated for 15 mins by EtBr staining based agarose gel electrophoresis method relative to control
T1 sequence (whole entry): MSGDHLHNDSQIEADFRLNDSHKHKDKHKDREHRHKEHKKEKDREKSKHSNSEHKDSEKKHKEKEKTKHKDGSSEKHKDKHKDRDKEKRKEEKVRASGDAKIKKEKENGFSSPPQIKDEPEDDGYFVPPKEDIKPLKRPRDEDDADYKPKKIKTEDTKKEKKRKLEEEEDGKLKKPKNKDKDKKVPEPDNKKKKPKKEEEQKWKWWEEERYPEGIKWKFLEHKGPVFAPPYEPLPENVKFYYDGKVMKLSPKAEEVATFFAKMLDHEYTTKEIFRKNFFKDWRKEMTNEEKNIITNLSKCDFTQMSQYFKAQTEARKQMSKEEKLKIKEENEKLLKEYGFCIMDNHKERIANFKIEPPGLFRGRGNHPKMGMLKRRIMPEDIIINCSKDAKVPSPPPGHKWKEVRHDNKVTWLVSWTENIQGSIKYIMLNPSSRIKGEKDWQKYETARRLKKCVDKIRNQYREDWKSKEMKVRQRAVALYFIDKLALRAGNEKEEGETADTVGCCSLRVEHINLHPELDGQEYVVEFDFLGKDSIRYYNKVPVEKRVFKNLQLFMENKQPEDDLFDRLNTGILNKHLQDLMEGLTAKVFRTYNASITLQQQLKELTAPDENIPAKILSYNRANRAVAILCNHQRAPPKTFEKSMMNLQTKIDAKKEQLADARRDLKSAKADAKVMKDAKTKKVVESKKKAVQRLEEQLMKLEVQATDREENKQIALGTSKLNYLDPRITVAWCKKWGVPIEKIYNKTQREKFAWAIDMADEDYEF

[2] = biological target: DNA topoisomerase 2-alpha (Homo sapiens) (UniProt P11388); experiment: Inhibition of Topoisomerase 2 (unknown origin) using pBR322 DNA as substrate at 100 uM incubated for 15 mins by EtBr staining based agarose gel electrophoresis method relative to control
[3] = biological target: T1, DNA topoisomerase 1 (Homo sapiens); experiment: Inhibition of Topoisomerase I (unknown origin) using pBR322 DNA as substrate at 50 uM incubated for 15 mins by EtBr staining based agarose gel electrophoresis method
[4] = biological target: DNA topoisomerase 2-alpha (Homo sapiens) (UniProt P11388); experiment: Inhibition of Topoisomerase 2 (unknown origin) using pBR322 DNA as substrate at 50 uM incubated for 15 mins by EtBr staining based agarose gel electrophoresis method

Chain of DNA topoisomerase 2-alpha (Homo sapiens) (P11388 whole entry): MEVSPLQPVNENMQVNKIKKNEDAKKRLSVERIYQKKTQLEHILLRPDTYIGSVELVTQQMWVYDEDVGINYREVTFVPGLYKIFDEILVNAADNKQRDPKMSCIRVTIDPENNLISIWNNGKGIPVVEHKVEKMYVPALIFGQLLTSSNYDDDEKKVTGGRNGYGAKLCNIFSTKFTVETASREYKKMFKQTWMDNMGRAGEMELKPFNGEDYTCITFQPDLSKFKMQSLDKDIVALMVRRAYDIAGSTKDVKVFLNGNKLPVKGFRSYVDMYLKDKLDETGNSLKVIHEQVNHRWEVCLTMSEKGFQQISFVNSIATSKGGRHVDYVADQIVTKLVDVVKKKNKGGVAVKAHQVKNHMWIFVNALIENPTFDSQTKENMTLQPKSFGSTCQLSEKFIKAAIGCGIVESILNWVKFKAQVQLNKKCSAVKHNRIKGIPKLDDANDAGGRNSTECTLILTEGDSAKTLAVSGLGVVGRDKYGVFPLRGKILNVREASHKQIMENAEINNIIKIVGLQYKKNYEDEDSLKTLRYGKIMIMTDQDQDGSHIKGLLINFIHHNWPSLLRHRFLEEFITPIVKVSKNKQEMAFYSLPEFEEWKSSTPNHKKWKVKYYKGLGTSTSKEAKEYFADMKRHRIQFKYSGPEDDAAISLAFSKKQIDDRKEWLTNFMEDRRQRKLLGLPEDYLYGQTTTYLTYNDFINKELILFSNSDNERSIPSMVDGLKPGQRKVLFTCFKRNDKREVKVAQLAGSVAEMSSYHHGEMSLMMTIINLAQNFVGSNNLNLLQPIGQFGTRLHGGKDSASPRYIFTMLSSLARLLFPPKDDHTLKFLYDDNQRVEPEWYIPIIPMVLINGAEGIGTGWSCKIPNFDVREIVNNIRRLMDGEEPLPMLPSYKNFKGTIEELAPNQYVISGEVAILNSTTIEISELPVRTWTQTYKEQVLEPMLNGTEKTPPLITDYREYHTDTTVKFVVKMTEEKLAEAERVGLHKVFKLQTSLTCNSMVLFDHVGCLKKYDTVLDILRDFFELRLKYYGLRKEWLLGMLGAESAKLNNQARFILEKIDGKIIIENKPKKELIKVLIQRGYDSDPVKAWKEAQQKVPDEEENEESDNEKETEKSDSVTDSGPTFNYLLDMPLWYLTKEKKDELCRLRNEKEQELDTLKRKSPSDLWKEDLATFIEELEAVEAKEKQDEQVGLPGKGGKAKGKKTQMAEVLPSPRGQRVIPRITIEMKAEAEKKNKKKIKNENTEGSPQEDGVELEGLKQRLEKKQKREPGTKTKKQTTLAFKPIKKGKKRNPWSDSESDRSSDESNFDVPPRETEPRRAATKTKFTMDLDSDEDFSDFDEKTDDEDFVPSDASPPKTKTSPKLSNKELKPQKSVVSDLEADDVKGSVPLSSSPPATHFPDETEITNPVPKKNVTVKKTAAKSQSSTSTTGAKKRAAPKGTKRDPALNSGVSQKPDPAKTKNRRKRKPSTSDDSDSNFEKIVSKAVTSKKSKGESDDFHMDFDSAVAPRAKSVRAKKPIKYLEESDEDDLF

Row | Compound | IC50 (MCF7) | IC50 (MDA-MB-231) | IC50 (PC-3) | IC50 (HCT-116) | IC50 (NCI-H2228) | IC50 (Huh-7) | inhibition [1] | inhibition [2] | inhibition [3] | inhibition [4]
1 | COc1ccc2c(c1)c1nc(Cl)c3ccccc3c1n2CCCN1C(=O)CC(C)(C)CC1=O | > 10 µM | > 10 µM | > 10 µM | > 10 µM | > 10 µM | > 10 µM | – | – | – | –
2 | COc1ccc2c(c1)c1nc(Cl)c3ccccc3c1n2CCCn1c(=O)c(F)cn([C@@H]2O[C@H](CO)[C@@H](O)[C@H]2O)c1=O | > 10 µM | > 10 µM | > 10 µM | > 10 µM | > 10 µM | > 10 µM | – | – | – | –
3 | COc1ccc2c(c1)c1nc(Cl)c3ccccc3c1n2CCCN1CC[C@@H](O)C1 | > 10 µM | > 10 µM | > 10 µM | > 10 µM | > 10 µM | > 10 µM | – | – | – | –
4 | O=C(CCCn1c2ccc(OC(F)F)cc2c2nc(Cl)c3ccccc3c21)NO | 4.35 µM | 3.69 µM | 4.11 µM | 2.5 µM | 5.31 µM | 4.13 µM | – | – | – | –
5 | COc1ccc2c(c1)c1nc(Cl)c3ccccc3c1n2CCCNc1nc(=O)n([C@@H]2O[C@H](CO)[C@@H](O)[C@H]2O)cc1F | > 10 µM | > 10 µM | > 10 µM | > 10 µM | > 10 µM | > 10 µM | – | – | – | –
6 | COc1ccc2c(c1)c1nc(Cl)c3ccccc3c1n2CCCn1c(=O)[nH]cc(F)c1=O | > 10 µM | > 10 µM | > 10 µM | > 10 µM | > 10 µM | > 10 µM | – | – | – | –
7 | COc1ccc2c(c1)c1nc(Cl)c3ccccc3c1n2CCCNc1ccn([C@H]2C[C@H](O)[C@@H](CO)O2)c(=O)n1 | > 10 µM | > 10 µM | > 10 µM | > 10 µM | > 10 µM | > 10 µM | – | – | – | –
8 | COc1ccc2c(c1)c1nc(Cl)c3ccccc3c1n2CCCN1CCC(CO)CC1 | > 10 µM | > 10 µM | > 10 µM | > 10 µM | > 10 µM | > 10 µM | – | – | – | –
9 | O=C(CCCn1c2cc3c(cc2c2[nH]c(=O)c4ccccc4c21)OCO3)NO | 6.57 µM | 4.88 µM | 7.14 µM | 4.08 µM | > 10 µM | > 10 µM | > 95% | > 95% | Active | Active
10 | COc1ccc2c3nc(Cl)c4ccccc4c3n(CCCC(=O)NO)c2c1 | 4.6 µM | 3.06 µM | 3.7 µM | 2.7 µM | 4.55 µM | > 10 µM | – | – | – | –
11 | COc1ccc2c(c1)c1nc(Cl)c3ccccc3c1n2CCCN1CCC[C@@H](O)C1 | > 10 µM | > 10 µM | > 10 µM | > 10 µM | > 10 µM | > 10 µM | – | – | – | –
12 | COc1ccc2c(c1)c1nc(Cl)c3ccccc3c1n2CCCN1CCC[C@@H]1CO | > 10 µM | > 10 µM | > 10 µM | > 10 µM | > 10 µM | > 10 µM | – | – | – | –
13 | COc1ccc2c(c1)c1nc(Cl)c3ccccc3c1n2CCCn1cnc(C)c1 | > 10 µM | > 10 µM | > 10 µM | > 10 µM | > 10 µM | > 10 µM | – | – | – | –
14 | COc1ccc2c(c1)c1nc(Cl)c3ccccc3c1n2CCCn1cc(C)nc1C | > 10 µM | > 10 µM | > 10 µM | > 10 µM | > 10 µM | > 10 µM | – | – | – | –
15 | CN(C)CCCn1c2ccccc2c2[nH]c(=O)c3ccccc3c21 | 6.84 µM | 5.9 µM | 4.38 µM | 4.05 µM | 7.03 µM | > 10 µM | – | – | – | –
16 | COc1ccc2c(c1)c1nc(Cl)c3ccccc3c1n2CCCN1CCOCC1 | > 10 µM | > 10 µM | > 10 µM | > 10 µM | > 10 µM | > 10 µM | – | – | – | –
17 | CC(C)Oc1ccc2c(c1)c1[nH]c(=O)c3ccccc3c1n2CCCN(C)C | > 10 µM | 5.6 µM | 4.91 µM | 2.26 µM | 2.56 µM | 6.74 µM | – | – | – | –
18 | COc1ccc2c(c1)c1nc(Cl)c3ccccc3c1n2CCCNc1ccn([C@@H]2O[C@H](CO)[C@@H](O)[C@@H]2O)c(=O)n1 | > 10 µM | > 10 µM | > 10 µM | > 10 µM | > 10 µM | > 10 µM | – | – | – | –
19 | O=C(CCCn1c2ccc(OC(F)F)cc2c2ncc3ccccc3c21)NO | 5.71 µM | 2.38 µM | 4.3 µM | 4.07 µM | 3.74 µM | 3.37 µM | – | – | – | –
20 | CC(C)Oc1ccc2c(c1)c1ncc3ccccc3c1n2CCCC(=O)NO | 4.56 µM | 1.78 µM | 2.57 µM | 2.14 µM | 4.86 µM | 4.43 µM | – | – | – | –

Stronger by IC50 (MCF7), values ahead:

Row | IC50 (MCF7) | IC50 (MDA-MB-231) | IC50 (PC-3) | IC50 (HCT-116) | IC50 (NCI-H2228) | IC50 (Huh-7) | inhibition [1] | inhibition [2] | inhibition [3] | inhibition [4] | Compound
21 | 3.61 µM | 5.04 µM | 3.26 µM | 3.68 µM | 3.1 µM | 4.57 µM | – | – | – | – | COc1ccc2c(c1)c1nc(Cl)c3ccccc3c1n2CCCN1CCCC(O)C1 (stereo unspecified)
22 | 1.76 µM | 2.52 µM | 1.12 µM | 1.79 µM | 2.36 µM | 2.26 µM | – | – | – | – | COc1ccc2c(c1)c1nc(Cl)c3ccccc3c1n2CCCN1CCN(C(C)C)CC1
23 | 1.83 µM | 1.36 µM | 1.65 µM | 0.96 µM | 1.5 µM | 2.49 µM | – | – | – | – | COc1ccc2c3nc(Cl)c4ccccc4c3n(CCCN(C)C)c2c1
24 | 2.75 µM | 1.95 µM | 2.67 µM | 1.33 µM | 1.51 µM | 2.99 µM | – | – | – | – | CN(C)CCCn1c2ccccc2c2nc(Cl)c3ccccc3c21
25 | 1.36 µM | 2.24 µM | 0.82 µM | 1.65 µM | 2.41 µM | 3.31 µM | – | – | – | – | COc1ccc2c(c1)c1nc(Cl)c3ccccc3c1n2CCCN1CCN(C)CC1
26 | 1.45 µM | 1.09 µM | 1.01 µM | 0.62 µM | 1.05 µM | 1.5 µM | – | – | – | – | COc1ccc2c(c1)c1ncc3ccccc3c1n2CCCN(C)C
27 | 1.45 µM | 2.04 µM | 1.07 µM | 1.38 µM | 2.04 µM | 2.18 µM | inactive | inactive | inactive | inactive | COc1ccc2c(c1)c1ncc3ccccc3c1n2CCCN1CCN(C(C)C)CC1
28 | 1.12 µM | 1.68 µM | 0.74 µM | 1.17 µM | 1.84 µM | 2.24 µM | inactive | inactive | inactive | inactive | COc1ccc2c(c1)c1ncc3ccccc3c1n2CCCN1CCN(C)CC1
29 | 1.41 µM | 1.92 µM | 1.32 µM | 0.55 µM | 2.03 µM | 2.55 µM | – | – | – | – | COc1ccc2c(c1)c1[nH]c(=O)c3ccccc3c1n2CCCN(C)C
30 | 3.73 µM | 1.92 µM | 2.58 µM | 1.8 µM | 4.66 µM | 3.92 µM | – | – | – | – | CCOc1ccc2c(c1)c1nc(Cl)c3ccccc3c1n2CCCC(=O)NO
31 | 0.97 µM | 0.8 µM | 1.55 µM | 1.38 µM | 3.06 µM | 3.41 µM | – | – | – | – | CCOc1ccc2c(c1)c1ncc3ccccc3c1n2CCCC(=O)NO
32 | 1.64 µM | 1.2 µM | 1.22 µM | 0.82 µM | 1.28 µM | 1.77 µM | – | – | – | – | COc1ccc2c(c1)c1nc(Cl)c3ccccc3c1n2CCCN(C)C
33 | 3.87 µM | 2.98 µM | 3.14 µM | 2.87 µM | 4.28 µM | 5.76 µM | – | – | – | – | O=C(CCCn1c2ccccc2c2nc(Cl)c3ccccc3c21)NO
34 | 2.96 µM | 4.1 µM | 2.7 µM | 2.55 µM | 2.73 µM | 4.36 µM | – | – | – | – | COc1ccc2c(c1)c1nc(Cl)c3ccccc3c1n2CCCN1CCC(N(C)C)CC1
